Test results taken from US20170291905A1, “ARGININE […] INHIBITORS AND USES THEREOF” (Epizyme, Inc., priority 2014, published 2017).
Structures can show the parent of a compound that is named as a salt.

target: T1, PRMT1 (Homo sapiens, UniProt Q99873); assay: RKO methylation assay, In Cell Western (ICW) for mono-methyl arginine and DNA content; type: cell-based; conditions: RKO cells, 72 hours, mono-methyl arginine signal normalised to DRAQ5, percent activation
T1 construct: host or cells: RKO cells
T1 sequence (Q99873 whole entry): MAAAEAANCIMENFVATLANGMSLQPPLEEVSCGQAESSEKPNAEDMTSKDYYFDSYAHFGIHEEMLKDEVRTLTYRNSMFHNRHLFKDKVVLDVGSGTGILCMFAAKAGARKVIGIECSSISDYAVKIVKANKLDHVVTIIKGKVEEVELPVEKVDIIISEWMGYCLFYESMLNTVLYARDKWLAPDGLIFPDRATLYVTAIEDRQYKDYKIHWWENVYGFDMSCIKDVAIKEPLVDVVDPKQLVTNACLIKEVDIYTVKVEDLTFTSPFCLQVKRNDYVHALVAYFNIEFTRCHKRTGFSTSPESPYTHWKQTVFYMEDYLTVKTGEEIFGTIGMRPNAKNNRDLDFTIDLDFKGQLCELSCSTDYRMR
Description: RKO Methylation Assay RKO adherent cells were purchased from ATCC (American Type Culture Collection), Manassas, Va., USA. DMEM/Glutamax medium, penicillin-streptomycin, heat inactivated fetal bovine serum, 0.05% trypsin and D-PBS were purchased from Life Technologies, Grand Island, N.Y., USA. Odyssey blocking buffer, 800CW goat anti-rabbit IgG (H+L) antibody, and Licor Odyssey infrared scanner were purchased from Licor Biosciences, Lincoln, Nebr., USA. Mono-methyl arginine antibody was purchased from Cell Signaling Technology, Danvers, Mass., USA. Methanol was purchased from VWR, Franklin, Mass., USA. 10% Tween 20 was purchased from KPL, Inc., Gaithersburg, Md., USA. DRAQ5 was purchased from Biostatus Limited, Leicestershire, UK. RKO adherent cells were maintained in growth medium (DMEM/Glutamax medium supplemented with 10% v/v heat inactivated fetal bovine serum and 100 units/mL penicillin-streptomycin) and cultured at 37° C. under 5% CO2. Cell Treatment, in Cell Western (ICW) for Detection of Mono-Methyl Arginine and DNA Content. RKO cells were seeded in assay medium at a concentration of 20,000 cells per mL to a poly-D-lysine coated 384 well culture plate (BD Biosciences 356697) with 50 μL per well. Compound (100 nL) from a 96-well source plate was added directly to 384 well cell plate. Plates were incubated at 37° C., 5% CO2 for 72 hours. After three days of incubation, plates were brought to room temperature outside of the incubator for ten minutes and blotted on paper towels to remove cell media. 50 μL of ice cold 100% methanol was added directly to each well and incubated for 30 min at room temperature. After 30 min, plates were transferred to a Biotek EL406 plate washer and washed 2 times with 100 μL per well of wash buffer (1×PBS). Next 60 μL per well of Odyssey blocking buffer (Odyssey Buffer with 0.1% Tween 20 (v/v)) were added to each plate and incubated 1 hour at room temperature. Blocking buffer was removed and 20 μL per well of primary antibody was added (mono-methyl arginine diluted 1:200 in Odyssey buffer with 0.1% Tween 20 (v/v)) and plates were incubated overnight (16 hours) at 4° C. Plates were washed 5 times with 100 μL per well of wash buffer. Next 20 μL per well of secondary antibody was added (1:200 800CW goat anti-rabbit IgG (H+L) antibody, 1:1000 DRAQ5 (Biostatus limited) in Odyssey buffer with 0.1% Tween 20 (v/v)) and incubated for 1 hour at room temperature. The plates were washed 5 times with 100 μL per well wash buffer then 2 times with 100 μL per well of water. Plates were allowed to dry at room temperature then imaged on the Licor Odyssey machine which measures integrated intensity at 700 nm and 800 nm wavelengths. Both 700 and 800 channels were scanned. […] Each plate included fourteen control wells of DMSO only treatment (minimum activation) as well as fourteen control wells for maximum activation treated with 20 μM of a reference compound. The average of the ratio values for each control type was calculated and used to determine the percent activation for each test well in the plate. Reference compound was serially diluted three-fold in DMSO for a total of nine test concentrations, beginning at 20 μM. Percent activation was determined and EC30 curves were generated using triplicate wells per concentration of compound.

| PRMT1 RGG ICW EC30 | SMILES |
| --- | --- |
| 0.2172 µM | CNCCN(C)Cc1c[nH]nc1[C@@H]1CC[C@@H](OCCCOC)C2(CCCC2)C1 (racemic) [compound 26, N1-((3-((7R,10R)-10-(3-methoxypropoxy)spiro[4.5]decan-7-yl)-1H-pyrazol-4-yl)methyl)-N1,N2-dimethylethane-1,2-diamine] |
| 0.2164 µM | CNCCN(C)Cc1c[nH]nc1[C@@H]1CC[C@H](OCCCOC)C2(CCCC2)C1 (racemic) [compound 27, N1-((3-((7R,10S)-10-(3-methoxypropoxy)spiro[4.5]decan-7-yl)-1H-pyrazol-4-yl)methyl)-N1,N2-dimethylethane-1,2-diamine] |
| >5.0 µM | CNCCN(C)Cc1c[nH]nc1C1CC(COCC2CC2)CC(COCC2CC2)C1 (stereo not drawn) [compound 2] |
| 0.1147 µM | CNCCN(C)Cc1c[nH]nc1[C@H]1CC[C@@]2(CCCCO2)CC1 [compound 3] |
| 0.01834 µM | CNCCN(C)Cc1c[nH]nc1[C@H]1CC[C@]2(CCCOC2)CC1 [compound 4, N1-((3-((6s,9s)-2-oxaspiro[5.5]undecan-9-yl)-1H-pyrazol-4-yl)methyl)-N1,N2-dimethylethane-1,2-diamine] |
| 0.01465 µM | CNCCN(C)Cc1c[nH]nc1[C@H]1CC[C@@]2(CCCOC2)CC1 [compound 5, N1-((3-((6r,9r)-2-oxaspiro[5.5]undecan-9-yl)-1H-pyrazol-4-yl)methyl)-N1,N2-dimethylethane-1,2-diamine] |
| 0.9493 µM | CNCCN(C)Cc1c[nH]nc1C1CCC(COCC(C)C)(COCC(C)C)CC1 [compound 6] |
| 0.01245 µM | CNCCN(C)Cc1c[nH]nc1C1CCC2(CCC(OC)CC2)CC1 (stereo not drawn) [compound 9, N1-((3-(9-methoxyspiro[5.5]undecan-3-yl)-1H-pyrazol-4-yl)methyl)-N1,N2-dimethylethane-1,2-diamine] |
| 2.001 µM | CNCCN(C)Cc1c[nH]nc1[C@H]1CC[C@]2(CCN(CCC(C)C)C2=O)CC1 [compound 10] |
| 0.03417 µM | CNCCN(C)Cc1c[nH]nc1[C@H]1CC[C@@]2(CCN(CCC(C)C)C2=O)CC1 [compound 11, (5r,8r)-2-isopentyl-8-(4-((methyl(2-(methylamino)ethyl)amino)methyl)-1H-pyrazol-3-yl)-2-azaspiro[4.5]decan-1-one] |
| >5.0 µM | CNCCN(C)Cc1c[nH]nc1C1C[C@@H](C(=O)N(C)CC(C)C)C(C)(C)[C@H](C(=O)N(C)CC(C)C)C1 (stereo partly drawn) [compound 12] |
| >5.0 µM | CNCCN(C)Cc1c[nH]nc1C1C[C@H](C(=O)NCCOC)C(C)(C)[C@H](C(=O)NCCOC)C1 (stereo partly drawn) [compound 13] |
| 0.3611 µM | CNCCN(C)Cc1c[nH]nc1C1=CCC(CF)(CF)CC1 [compound 15, N-((3-(4,4-bis(fluoromethyl)cyclohex-1-en-1-yl)-1H-pyrazol-4-yl)methyl)-N1,N2-dimethylethane-1,2-diamine] |
| 0.8393 µM | CNCCN(C)Cc1c[nH]nc1C1=CCC(COCC(F)(F)F)CC1 (stereo not drawn) [compound 16, N1,N2-dimethyl-N1-((3-(4-((2,2,2-trifluoroethoxy)methyl)cyclohex-1-en-1-yl)-1H-pyrazol-4-yl)methyl)ethane-1,2-diamine] |
| 1.835 µM | CCC1(CC)CC2(CCC(c3n[nH]cc3CN(C)CCNC)CC2)N(C)C1=O (stereo not drawn) [compound 22, 3,3-diethyl-1-methyl-8-(4-((methyl(2-(methylamino)ethyl)amino)methyl)-1H-pyrazol-3-yl)-1-azaspiro[4.5]decan-2-one] |
| 1.721 µM | CNCCN(C)Cc1c[nH]nc1[C@H]1CC[C@@H](COCC(F)(F)F)CC1 [compound 23, N1,N2-dimethyl-N1-((3-((1s,4s)-4-((2,2,2-trifluoroethoxy)methyl)cyclohexyl)-1H-pyrazol-4-yl)methyl)ethane-1,2-diamine] |
| 0.1616 µM | CNCCN(C)Cc1c[nH]nc1[C@H]1CC[C@H](COCC(F)(F)F)CC1 [compound 24, N1,N2-dimethyl-N1-((3-((1r,4r)-4-((2,2,2-trifluoroethoxy)methyl)cyclohexyl)-1H-pyrazol-4-yl)methyl)ethane-1,2-diamine] |
| >5.0 µM | CNCCN(C)Cc1cn(C)nc1C1CCC(C)(C)[C@@H](C(=O)NCC(C)C)C1 (stereo partly drawn) [compound 25] |
| 0.209 µM | CNCCN(C)Cc1c[nH]nc1C1CCC(C)(C)[C@H](COCCCOC)C1 (stereo partly drawn) [compound 30, {2-[({3-[(3R)-3-[(3-methoxypropoxy)methyl]-4,4-dimethylcyclohexyl]-1H-pyrazol-4-yl}methyl)(methyl)amino]ethyl}(methyl)amine] |
| 0.4536 µM | CCOC[C@@H]1CC(c2n[nH]cc2CN(C)CCNC)CCC1(C)C (stereo partly drawn) [compound 31, {2-[({3-[(3R)-3-(ethoxymethyl)-4,4-dimethylcyclohexyl]-1H-pyrazol-4-yl}methyl)(methyl)amino]ethyl}(methyl)amine] |
| 0.5179 µM | CNCCN(C)Cc1c[nH]nc1C1CCC(C)(C)[C@H](CO)C1 (stereo partly drawn) [compound 32, [(1R)-2,2-dimethyl-5-[4-({methyl[2-(methylamino)ethyl]amino}methyl)-1H-pyrazol-3-yl]cyclohexyl]methanol] |
| 0.04081 µM | CCC1(CC)C[C@]2(CC[C@H](c3n[nH]cc3CN(C)CCNC)CC2)OC1=O [compound 33, (5s,8s)-3,3-diethyl-8-(4-((methyl(2-(methylamino)ethyl)amino)methyl)-1H-pyrazol-3-yl)-1-oxaspiro[4.5]decan-2-one] |
| 0.06546 µM | CCC1(CC)C[C@]2(CC[C@@H](c3n[nH]cc3CN(C)CCNC)CC2)OC1=O [compound 34, (5r,8r)-3,3-diethyl-8-(4-((methyl(2-(methylamino)ethyl)amino)methyl)-1H-pyrazol-3-yl)-1-oxaspiro[4.5]decan-2-one] |
| 0.3301 µM | CNCCN(C)Cc1c[nH]nc1C1CCC(C)(C)[C@H](COCCOC)C1 (stereo partly drawn) [compound 35, {2-[({3-[(3R)-3-[(2-methoxyethoxy)methyl]-4,4-dimethylcyclohexyl]-1H-pyrazol-4-yl}methyl)(methyl)amino]ethyl}(methyl)amine] |
| 0.06617 µM | CCCOCC1(COCCC)CCC(c2n[nH]cc2CN(C)CCNC)CC1 [compound 36, N^1-((3-(4,4-bis(propoxymethyl)cyclohexyl)-1H-pyrazol-4-yl)methyl)-N^1,N^2-dimethylethane-1,2-diamine] |
| 0.2455 µM | CC[C@]12CC[C@](CC)(C[C@H](c3n[nH]cc3CN(C)CCNC)C1)O2 [compound 37, N1-((3-((1R,3r,5S)-1,5-diethyl-8-oxabicyclo[3.2.1]octan-3-yl)-1H-pyrazol-4-yl)methyl)-N1,N2-dimethylethane-1,2-diamine] |

| SMILES | PRMT1 RGG ICW EC30 |
| --- | --- |
| CNCCN(C)Cc1c[nH]nc1C1CCC(OCCCOC)C2(CCCC2)C1 (mixture of isomers) [compound 19, N1-((3-(10-(3-methoxypropoxy)spiro[4.5]decan-7-yl)-1H-pyrazol-4-yl)methyl)-N1,N2-dimethylethane-1,2-diamine dihydrochloride] | 0.4403 µM |
| CCN(C)C(=O)C1CC(c2n[nH]cc2CN(C)CCNC)CC(C(=O)NCCC(C)C)C1(C)C (stereo not drawn) [compound 14, N1-ethyl-N3-isopentyl-N1,2,2-trimethyl-5-(4-((methyl(2-(methylamino)ethyl)amino)methyl)-1H-pyrazol-3-yl)cyclohexane-1,3-dicarboxamide] | >5.0 µM |
| CNCCN(C)Cc1c[nH]nc1C1CCC(C)(C)[C@H](OCC(C)C)C1 (stereo partly drawn) [compound 20, ({3-[(3R)-4,4-dimethyl-3-(2-methylpropoxy)cyclohexyl]-1H-pyrazol-4-yl}methyl)(methyl)[2-(methylamino)ethyl]amine] | 0.2043 µM |
| CCC1CC(c2n[nH]cc2CN(C)CCNC)CC(C(=O)NCCOC)C1(C)C (stereo not drawn) [compound 21, 3-ethyl-N-(2-methoxyethyl)-2,2-dimethyl-5-[4-([methyl[2-(methylamino)ethyl]amino]methyl)-1H-pyrazol-3-yl]cyclohexane-1-carboxamide dihydrochloride] | >5.0 µM |
